Experimental data taken from ChEMBL document CHEMBL4414613, “Antibacterial 5α-Spirostane Saponins from the Fruit of Cordyline manners-suttoniae” (J Nat Prod, 2019).
In brackets after ≈: the same amount, converted by molar mass. Activity calls are given as the source filed them. The calls are words filed in the database; no cut-off is given here.

Legend:
Staphylococcus aureus [1] = assay: Antibacterial activity against Staphylococcus aureus ATCC 29247 incubated for 24 hrs by microdilution assay; format: functional
Staphylococcus aureus [2] = assay: Antibacterial activity against Staphylococcus aureus ATCC 25923 incubated for 24 hrs by microdilution assay; format: functional
Enterococcus faecium [3] = assay: Antibacterial activity against Enterococcus faecium ATCC 35667 incubated for 24 hrs by microdilution assay; format: functional
Enterococcus faecium [4] = assay: Antibacterial activity against Enterococcus faecium C15 incubated for 24 hrs by microdilution assay; format: functional
Staphylococcus aureus [5] = assay: Bactericidal activity against Staphylococcus aureus ATCC 29247 at 90 uM incubated for 24 hrs by microdilution assay; format: functional, organism-based
Staphylococcus aureus [6] = assay: Bactericidal activity against Staphylococcus aureus ATCC 25923 at 90 uM incubated for 24 hrs by microdilution assay; format: functional, organism-based
Enterococcus faecium [7] = assay: Bactericidal activity against Enterococcus faecium ATCC 35667 at 90 uM incubated for 24 hrs by microdilution assay; format: functional, organism-based
Enterococcus faecium [8] = assay: Bactericidal activity against Enterococcus faecium C15 at 90 uM incubated for 24 hrs by microdilution assay; format: functional, organism-based
Staphylococcus aureus [9] = assay: Antibacterial activity against Staphylococcus aureus ATCC 29247 at 90 uM incubated for 24 hrs by microdilution assay; format: functional, organism-based
Staphylococcus aureus [10] = assay: Antibacterial activity against Staphylococcus aureus ATCC 25923 at 90 uM incubated for 24 hrs by microdilution assay; format: functional, organism-based
Enterococcus faecium [11] = assay: Antibacterial activity against Enterococcus faecium ATCC 35667 at 90 uM incubated for 24 hrs by microdilution assay; format: functional, organism-based
HaCaT = assay: Cytotoxicity against human HaCaT cells assessed as reduction in cell viability incubated for 4 days by CellTiter 96 aqueous one solution assay; format: cell-based; conditions: 96 h
NHDF = assay: Cytotoxicity against human HDF cells assessed as reduction in cell viability incubated for 7 days by CellTiter 96 aqueous one solution assay; format: functional, cell-based; conditions: 168 h
Klebsiella pneumoniae [12] = assay: Antibacterial activity against Klebsiella pneumoniae ATCC 13883 at 90 uM incubated for 24 hrs by microdilution assay; format: functional, organism-based
Klebsiella pneumoniae [13] = assay: Antibacterial activity against Klebsiella pneumoniae ATCC 12657 at 90 uM incubated for 24 hrs by microdilution assay; format: functional, organism-based
Acinetobacter baumannii [14] = assay: Antibacterial activity against Acinetobacter baumannii ATCC 19606 at 90 uM incubated for 24 hrs by microdilution assay; format: functional, organism-based; conditions: ATCC 19606 = CIP 70.34 = JCM 6841
Acinetobacter baumannii [15] = assay: Antibacterial activity against Acinetobacter baumannii ATCC 17978 at 90 uM incubated for 24 hrs by microdilution assay; format: functional, organism-based
Pseudomonas aeruginosa [16] = assay: Antibacterial activity against Pseudomonas aeruginosa ATCC 10145 at 90 uM incubated for 24 hrs by microdilution assay; format: functional, organism-based
Pseudomonas aeruginosa [17] = assay: Antibacterial activity against Pseudomonas aeruginosa ATCC 49189 at 90 uM incubated for 24 hrs by microdilution assay; format: functional, organism-based
[18] = test system: Enterobacter cloacae subsp. cloacae; assay: Antibacterial activity against Enterobacter cloacae ATCC 13047 at 90 uM incubated for 24 hrs by microdilution assay; format: functional
Klebsiella aerogenes [19] = assay: Antibacterial activity against Enterobacter aerogenes ATCC 13048 at 90 uM incubated for 24 hrs by microdilution assay; format: functional
Klebsiella pneumoniae [20] = assay: Bactericidal activity against Klebsiella pneumoniae ATCC 13883 at 90 uM incubated for 24 hrs by microdilution assay; format: functional, organism-based
Klebsiella pneumoniae [21] = assay: Bactericidal activity against Klebsiella pneumoniae ATCC 12657 at 90 uM incubated for 24 hrs by microdilution assay; format: functional, organism-based
Acinetobacter baumannii [22] = assay: Bactericidal activity against Acinetobacter baumannii ATCC 19606 at 90 uM incubated for 24 hrs by microdilution assay; format: functional, organism-based; conditions: ATCC 19606 = CIP 70.34 = JCM 6841
Acinetobacter baumannii [23] = assay: Bactericidal activity against Acinetobacter baumannii ATCC 17978 at 90 uM incubated for 24 hrs by microdilution assay; format: functional, organism-based
Pseudomonas aeruginosa [24] = assay: Bactericidal activity against Pseudomonas aeruginosa ATCC 10145 at 90 uM incubated for 24 hrs by microdilution assay; format: functional, organism-based
Pseudomonas aeruginosa [25] = assay: Bactericidal activity against Pseudomonas aeruginosa ATCC 49189 at 90 uM incubated for 24 hrs by microdilution assay; format: functional, organism-based
[26] = test system: Enterobacter cloacae subsp. cloacae; assay: Bactericidal activity against Enterobacter cloacae ATCC 13047 at 90 uM incubated for 24 hrs by microdilution assay; format: functional
Klebsiella aerogenes [27] = assay: Bactericidal activity against Enterobacter aerogenes ATCC 13048 at 90 uM incubated for 24 hrs by microdilution assay; format: functional
[28] = Selectivity ratio of IC50 for human HaCaT cells to IC50 for human HDF cells by CellTiter 96 aqueous one solution assay
Enterococcus faecium [29] = assay: Bactericidal activity against Enterococcus faecium ATCC 35667 incubated for 24 hrs by microdilution assay; format: functional; conditions: ATCC 35667, 24 h
Enterococcus faecium [30] = assay: Bactericidal activity against Enterococcus faecium C15 incubated for 24 hrs by microdilution assay; format: functional; conditions: C15, 24 h

Structure (SMILES) | MIC75 (Enterococcus faecium [4]) | Activity (Staphylococcus aureus [5]) | Activity (Staphylococcus aureus [6]) | IC50 (HaCaT) | IC50 (NHDF) | Activity (Klebsiella pneumoniae [12]) | Activity (Klebsiella pneumoniae [13]) | Activity (Acinetobacter baumannii [14]) | Activity (Acinetobacter baumannii [15]) | Activity (Pseudomonas aeruginosa [16]) | Activity (Pseudomonas aeruginosa [17]) | Activity [18] | Activity (Klebsiella aerogenes [19]) | Activity (Klebsiella pneumoniae [20]) | Activity (Klebsiella pneumoniae [21]) | Activity (Acinetobacter baumannii [22]) | Activity (Acinetobacter baumannii [23]) | Activity (Pseudomonas aeruginosa [24]) | Activity (Pseudomonas aeruginosa [25]) | Activity [26] | also measured
O=C(N[C@H](CO)[C@H](O)c1ccc([N+](=O)[O-])cc1)C(Cl)Cl [CHLORAMPHENICOL] | 9.7 µM (≈ 3.13 µg/mL) | inactive | inactive | – | – | – | – | – | – | – | – | – | – | – | – | – | – | – | – | – | MIC75 (Staphylococcus aureus [1]): 9.7 µM (≈ 3.13 µg/mL); MIC75 (Staphylococcus aureus [2]): 9.7 µM (≈ 3.13 µg/mL); MIC75 (Enterococcus faecium [3]): 9.7 µM (≈ 3.13 µg/mL); Activity (Enterococcus faecium [7]): inactive; Activity (Enterococcus faecium [8]): inactive
C[C@@H]1CC[C@]2(OC1)O[C@H]1C[C@H]3[C@@H]4CC[C@H]5[C@H](O)[C@H](O)C[C@@H](O[C@@H]6O[C@H](C)[C@H](O)[C@H](O)[C@H]6O)[C@]5(C)[C@H]4CC[C@]3(C)[C@H]1[C@@H]2C | 84.1 µM (≈ 50 µg/mL) | inactive | inactive | 74.9 µM | 6.6 µM | inactive | inactive | inactive | inactive | inactive | inactive | inactive | inactive | inactive | inactive | inactive | inactive | inactive | inactive | inactive | Activity (Staphylococcus aureus [9]): inactive; Activity (Staphylococcus aureus [10]): inactive; Activity (Enterococcus faecium [11]): inactive; Activity (Enterococcus faecium [7]): inactive; Activity (Enterococcus faecium [8]): inactive; Activity (Klebsiella aerogenes [27]): inactive; Ratio IC50 [28]: 3 - 11
C=C1CC[C@]2(OC1)O[C@H]1C[C@H]3[C@@H]4CC[C@H]5C[C@H](O)C[C@@H](O[C@@H]6O[C@H](C)[C@H](O)[C@H](O)[C@H]6O)[C@]5(C)[C@H]4CC[C@]3(C)[C@H]1[C@@H]2C | 21.7 µM (≈ 12.5 µg/mL) | inactive | inactive | 38.9 µM | 8.3 µM | inactive | inactive | inactive | inactive | inactive | inactive | inactive | inactive | inactive | inactive | inactive | inactive | inactive | inactive | inactive | MIC75 (Staphylococcus aureus [1]): 21.7 µM (≈ 12.5 µg/mL); MIC75 (Staphylococcus aureus [2]): 21.7 µM (≈ 12.5 µg/mL); MIC75 (Enterococcus faecium [3]): 43.3 µM (≈ 25 µg/mL); MBC (Enterococcus faecium [29]): 86.4 µM (≈ 49.8 µg/mL); MBC (Enterococcus faecium [30]): 86.4 µM (≈ 49.8 µg/mL); Activity (Klebsiella aerogenes [27]): inactive; Ratio IC50 [28]: 3 - 11
C[C@@H]1CC[C@]2(OC1)O[C@H]1C[C@H]3[C@@H]4CC[C@H]5[C@H](O)[C@@H](O)C[C@@H](O[C@@H]6O[C@H](C)[C@H](O)[C@H](O)[C@H]6O)[C@]5(C)[C@H]4CC[C@]3(C)[C@H]1[C@@H]2C | 84.1 µM (≈ 50 µg/mL) | inactive | inactive | 36.3 µM | 8.6 µM | inactive | inactive | inactive | inactive | inactive | inactive | inactive | inactive | inactive | inactive | inactive | inactive | inactive | inactive | inactive | MIC75 (Enterococcus faecium [3]): 84.1 µM (≈ 50 µg/mL); Activity (Staphylococcus aureus [9]): inactive; Activity (Staphylococcus aureus [10]): inactive; Activity (Enterococcus faecium [7]): inactive; Activity (Enterococcus faecium [8]): inactive; Activity (Klebsiella aerogenes [27]): inactive; Ratio IC50 [28]: 3 - 11
C[C@@H]1CC[C@]2(OC1)O[C@H]1C[C@H]3[C@@H]4CC[C@H]5C[C@H](O)C[C@@H](O[C@@H]6O[C@H](C)[C@H](O)[C@H](O)[C@H]6O)[C@]5(C)[C@H]4CC[C@]3(C)[C@H]1[C@@H]2C | 43.2 µM (≈ 25 µg/mL) | inactive | inactive | 36.5 µM | 7.5 µM | inactive | inactive | inactive | inactive | inactive | inactive | inactive | inactive | inactive | inactive | inactive | inactive | inactive | inactive | inactive | MIC75 (Staphylococcus aureus [1]): 43.2 µM (≈ 25 µg/mL); MIC75 (Staphylococcus aureus [2]): 43.2 µM (≈ 25 µg/mL); MIC75 (Enterococcus faecium [3]): 43.2 µM (≈ 25 µg/mL); MBC (Enterococcus faecium [29]): 86.4 µM (≈ 50 µg/mL); MBC (Enterococcus faecium [30]): 86.4 µM (≈ 50 µg/mL); Activity (Klebsiella aerogenes [27]): inactive; Ratio IC50 [28]: 3 - 11
C=C1CC[C@]2(OC1)O[C@H]1C[C@H]3[C@@H]4CC[C@H]5[C@H](O)[C@H](O)C[C@@H](O[C@@H]6O[C@H](C)[C@H](O)[C@H](O)[C@H]6O)[C@]5(C)[C@H]4CC[C@]3(C)[C@H]1[C@@H]2C | 84.3 µM (≈ 50 µg/mL) | inactive | inactive | 47.4 µM | 16.5 µM | inactive | inactive | inactive | inactive | inactive | inactive | inactive | inactive | inactive | inactive | inactive | inactive | inactive | inactive | inactive | Activity (Staphylococcus aureus [9]): inactive; Activity (Staphylococcus aureus [10]): inactive; Activity (Enterococcus faecium [11]): inactive; Activity (Enterococcus faecium [7]): inactive; Activity (Enterococcus faecium [8]): inactive; Activity (Klebsiella aerogenes [27]): inactive; Ratio IC50 [28]: 3 - 11
C=C1CC[C@]2(OC1)O[C@H]1C[C@H]3[C@@H]4CC[C@H]5[C@H](O)[C@@H](O)C[C@@H](O[C@@H]6O[C@H](C)[C@H](O)[C@H](O)[C@H]6O)[C@]5(C)[C@H]4CC[C@]3(C)[C@H]1[C@@H]2C | 84.3 µM (≈ 50 µg/mL) | inactive | inactive | 42.1 µM | 8.9 µM | inactive | inactive | inactive | inactive | inactive | inactive | inactive | inactive | inactive | inactive | inactive | inactive | inactive | inactive | inactive | Activity (Staphylococcus aureus [9]): inactive; Activity (Staphylococcus aureus [10]): inactive; Activity (Enterococcus faecium [11]): inactive; Activity (Enterococcus faecium [7]): inactive; Activity (Enterococcus faecium [8]): inactive; Activity (Klebsiella aerogenes [27]): inactive; Ratio IC50 [28]: 3 - 11
COc1cccc2c1C(=O)c1c(O)c3c(c(O)c1C2=O)C[C@@](O)(C(=O)CO)C[C@@H]3O[C@H]1C[C@H](N)[C@H](O)[C@H](C)O1 [DOXORUBICIN] | – | – | – | 0.01 µM | 0.011 µM | – | – | – | – | – | – | – | – | – | – | – | – | – | – | – | –
